Several values for one entry are separate records, joined by “and”; a condition that tells them apart may be missing. Equal entries are not always repeated.
Columns and labels:
[1] = tested on: Bipolaris sorokiniana; test: wheat pathogen assay (fungal infection of wheat seedlings); type: in vivo; details: FIG. 1; for infection symptoms (symptomatic areas relative to the total leaf area) compared to mock: wheat cv. Louise sprayed with 1 μM solution in 0.1% Tween-20, inoculated 48 hours later with Bipolaris sorokiniana spores; for efficacy in reducing fungal infection relative to ascr #18: wheat, 1 μM solutions
Description: The products of Examples 1, 1a to 1, 1c (hereafter referred to as compounds 1a, 1b, and 1c) were evaluated in a wheat pathogen assay to assess the potential of these analogs to prevent crop damage caused by a fungal pathogen. Wheat seeds of cv. Louise were planted in potting soil and grown for two weeks in a growth chamber at 26° C. and 23° C., respectively, with 16 hours of light. After two weeks, the plants were sprayed with a 1 μM solution of ascr #18, or compounds 1a, 1b, or 1c containing 0.1% (v/v) Tween®-20 in water solution, or with a mock solution only containing 0.1% (v/v) Tween®-20. 48 hours after treatment, the wheat plants were inoculated with a Bipolaris sorokiniana spore solution (with 15000 spores/ml) and placed in a dark grow tent with high humidity (>80% RH) for 24 hours at 23° C. Subsequently, the plants were moved to a high humidity environment (>80% RH) at 23° C. and 12 hours of light and dark until fungal infection was visible on the leaves of the mock-treated plants (usually after about four days). Symptoms were evaluated by photographing the infected leaves and processing the images through machine learning image analysis software (Ilastik) to determine the symptomatic areas relative to the total leaf area. […] The infection levels in the treated plants were similar to those treated with 1 μM ascr #18. […] In FIG. 1, error bars depict standard error of the mean for a total n≥35 plants across 4 independent experiments. Outliers were removed with the GraphPad ROUT method, and significance determined by a one-way ANOVA test.

[2] = uptake and metabolism of ascaroside amides in alfalfa seedlings (LC-MS of tissue extracts); type: in vivo; details: for hydrolysis or metabolism by the plant: alfalfa plants, timeframe shown (24 h + 4 h)
Description: Ascaroside analogs 1a, 1b, and 1c were also evaluated in alfalfa seedlings to assess whether plants take up these analogs and whether they are hydrolyzed or metabolized to other ascarosides (specifically to ascr #18 and/or ascr #18 metabolites). The ascr #18 metabolism was evaluated by assaying the plant tissues for the known ascaroside metabolite ascr #9.
(§1) Alfalfa seeds were germinated in the dark on culture plates (10 seeds per plate) containing Gelzan growth medium and were allowed to grow for 3-4 days before treatment. Treatment consisted of flooding the plates with 10 μM aqueous solutions of one of the ascaroside analogs 1a, 1b, or 1c, with ascr #18 (as a positive control), or with plain water as a mock treatment (5 ml total volume, solutions prepared in MQ water). Each experiment was performed in duplicate. After 24 hours, the plates were moved to an illuminated growth chamber for 4 hours before sampling.
Sprouts were collected, thoroughly rinsed with MQ water, dried, flash-frozen, and homogenized. The homogenized tissues were extracted with 100% ethanol and the extracts were analyzed using high-resolution liquid chromatography-mass spectrometry (LC-MS). LC-MS analysis was performed using a Dionex 3000 UPLC coupled with a Thermo Q Exactive high-resolution mass spectrometer equipped with a HESI ion source. To measure ascarosides, samples were chromatographed using an Agilent Zorbax Eclipse column (150 mm×2.1 mm, particle size 1.98 μm) maintained at 40° C. with a 0.5 ml/min flow rate. Solvent A: 0.1% formic acid in water; Solvent B: 0.1% formic acid in acetonitrile. A solvent mixture using 1% B was used for 1.5 min after injection, followed by a linear gradient up to 99% B at 9.5 min, followed by 0.75 min of 99% B, then back to 1% B over 0.5 min, and finally held at 1% B for an additional 1.25 min to re-equilibrate the column (total time: 12 min, with needle washing and file writing: ˜14 min). Mass spectrometer parameters: spray voltage (−3.0 kV or +3.5 kV); capillary temperature 380° C.; probe heater temperature 400° C.; sheath, auxiliary, and sweep gas 60, 20, and 2 AU, respectively—S-Lens RF level: 50, resolution 120,000 at m/z 200, AGC target 3E6. Samples were injected and analyzed in negative electrospray ionization mode with an m/z range of 100-1000. Ascr #18 (C17H32O6) ionizes in negative ion mode as C17H31O6, m/z=331.2126, retention time 6 minutes using the above chromatographic conditions. Samples were also analyzed in positive ionization mode.
(§2) The treatment solutions used to treat the sprouts were also analyzed assayed and the results are shown in the Column of Table 1 labeled “Input” In each case, only the analog, or ascr #18 respectively is detected, indicating the molecules are stable in the treatment solutions.

[3] = LC-MS analysis of the treatment solutions (Input); type: physicochemical; details: 10 μM aqueous treatment solutions used to treat the sprouts; Rep1/Rep2
Description: as §1
Sprouts were collected, thoroughly rinsed with MQ water, dried, flash-frozen, and homogenized. The homogenized tissues were extracted with 100% ethanol and the extracts were analyzed using high-resolution liquid chromatography-mass spectrometry (LC-MS). […] Samples were injected and analyzed in negative electrospray ionization mode with an m/z range of 100-1000. […] Samples were also analyzed in positive ionization mode.
as §2

| hydrolysis or metabolism by the plant [2] | uptake by plants ([2]; alfalfa sprouts, 10 μM) | Input (LCMS detector response for diagnostic ion of the analog or ascr#18) [3] | Compound | infection symptoms (symptomatic areas relative to the total leaf area) compared to mock [1] | efficacy in reducing fungal infection relative to ascr #18 [1] | half-life in the plant relative to ascr #18 ([2]; alfalfa, inferred from LC-MS data of Table 1) |
| --- | --- | --- | --- | --- | --- | --- |
| hydrolyzed or metabolized by the plant | – | – | C[C@H](CCCCCCCCC(N)=O)O[C@@H]1O[C@@H](C)[C@H](O)C[C@H]1O [1c, (R)-10-(((2R,3R,5R,6S)-3,5-dihydroxy-6-methyltetrahydro-2H-pyran-2-yl)oxy)-undecanamide] | reduced infection symptoms | comparable to that of ascr #18 | – |
| hydrolyzed or metabolized by the plant | – | – | C[C@H](CCCCCCCCC(=O)NCCO)O[C@@H]1O[C@@H](C)[C@H](O)C[C@H]1O [1b, (R)-10-(((2R,3R,5R,6S)-3,5-dihydroxy-6-methyltetrahydro-2H-pyran-2-yl)oxy)-N-(2-hydroxyethyl)-undecanamide] | reduced infection symptoms | comparable to that of ascr #18 | – |
| not hydrolyzed or metabolized | taken up by plants | 4.03E+06 and 6.78E+06 | CCN(CC)C(=O)CCCCCCCC[C@@H](C)O[C@@H]1O[C@@H](C)[C@H](O)C[C@H]1O [compound 1a, (R)-10-(((2R,3R,5R,6S)-3,5-dihydroxy-6-methyltetrahydro-2H-pyran-2-yl)oxy)-N,N-diethylundecanamide] | reduced infection symptoms | comparable to that of ascr #18 | longer half life than ascr #18 or the other analogs tested |

— patent US20260150838A1, “ASCAROSIDE DERIVATIVES” (Ascribe Bioscience Inc., priority 2023, published 2026)
